Laboratory results taken from paper PMC5309245, “Discovery and Characterization of Diazenylaryl Sulfonic Acids as Inhibitors of Viral and Bacterial Neuraminidases” (Frontiers in Microbiology, 2017).

Columns and labels:
[1] = target: influenza virus A/WSN/33 NA-H274Y (Influenza A virus, UniProt P03470, H259Y); assay type: biochemical, influenza A virus A/WSN/1933 (H1N1)
[2] = tested on: influenza virus A/WSN/33 NA-I427Q
[3] = target: influenza virus A/WSN/33 NA-Q136L (Influenza A virus, UniProt P03470, Q120L); assay type: biochemical, influenza A virus A/WSN/1933 (H1N1)
[4] = tested on: influenza virus A/WSN/33 NA-I427M
[5] = target: influenza virus A/WSN/33 NA-Y155H (Influenza A virus, UniProt P03470, Y139H); assay type: biochemical, influenza A virus A/WSN/1933 (H1N1)
[6] = target: influenza virus A/WSN/33 NA-N294S (Influenza A virus, UniProt P03470, N279S); assay type: biochemical, influenza A virus A/WSN/1933 (H1N1)
[7] = target: influenza virus A/WSN/33 NA-I427Q (Influenza A virus, UniProt P03470, I411Q); conditions: read-out: IC50, NA-I427Q
[8] = target: IAV WSN/33 NA-wt (whole virus) (Influenza A virus, UniProt P03470); assay: biochemical; design: species or system influenza A virus A/WSN/1933 (H1N1); conditions: read-out: IC50, NA-wt
[9] = target: influenza virus A/WSN/33 NA-I427M (Influenza A virus, UniProt P03470, I411M); conditions: read-out: IC50, NA-I427M

Compound | FC, NA-H274Y [1] | FC, NA-I427Q [2] | FC, NA-Q136L [3] | FC, NA-I427M [4] | FC, NA-Y155H [5] | FC, NA-N294S [6] | IC50 [1] [nM] | IC50 [7] [nM] | IC50 [3] [nM] | IC50 [8] [nM] | IC50 [9] [nM] | IC50 [5] [nM] | IC50 [6] [nM]
Cc1ccccc1/N=N/c1ccc(/N=N/c2c(O)ccc3cc(S(=O)(=O)O)cc(S(=O)(=O)O)c23)c(C)c1 [Compound 5] | 3 | 2 | 2 | 2 | 1 | 3 |  |  |  |  |  |  | 
Cc1cc(N=Nc2ccc(N=Nc3c(O)c(S(=O)(=O)O)cc4cc(S(=O)(=O)O)ccc34)cc2C)ccc1N=Nc1ccc2cc(S(=O)(=O)O)cc(S(=O)(=O)O)c2c1 [Compound 1, 7-[2-[4-[2-[4-[2-(2-hydroxy-3,6-disulfo-1-naphthalenyl)diazenyl]-2-methylphenyl]diazenyl]-2-methylphenyl]diazenyl]-1,3-naphthalenedisulfonic acid] | 3 | 1 | 2 | 2 | 1 | 1 |  |  |  |  |  |  | 
CC(=O)N[C@H]1[C@H]([C@H](O)[C@H](O)CO)OC(C(=O)O)=C[C@@H]1O [DANA, 2,3-dehydro-2-deoxy-N-acetylneuraminic acid, reference compound] | 1 |  | 1 | 1 | 3 | 3 | 2510 ± 1380 | 12800 ± 750 | 2330 ± 1320 | 2440 ± 1080 | 2210 ± 620 | 8360 ± 3130 | 8120 ± 2070
O=S(=O)(O)c1ccc2c(/N=N/c3ccc(Sc4ccc(/N=N/c5c(O)ccc6cc(S(=O)(=O)O)ccc56)cc4)cc3)c(O)ccc2c1 [Compound 2] | 2 | 1 | 2 | 1 | 0.2 | 1 |  |  |  |  |  |  | 
